Data from patent US12459899B2, “Isoquinolinone derivatives, method for preparing the same, and pharmaceutical composition for preventing or treating poly(ADP-ribose) polymerase-1-related diseases, comprising the same as active ingredient” (DIGMBIO. INC., priority 2019, dated 2025).

Target: PARP-1 (poly[ADP-ribose] polymerase 1) enzyme (Homo sapiens (Human), UniProt P09874)
Assay: PARP-1 (poly[ADP-ribose] polymerase 1) enzyme inhibitory ability, Trevigen assay kit
Type: biochemical
Details: for inhibition at 0.001 µM: 1 nM compound, read-out: PAR P-1 Inhibitory ability at 1 nM; for IC50: PARP-1 enzyme activity
Summary of the method: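 Human PARP-1 activity was measured with a Trevigen assay kit in histone-coated 96-well plates rehydrated with 50 μL of 1×PARP buffer for 30 minutes. Enzyme (0.5 unit/well) and compound were preincubated 10 minutes at room temperature, then 25 μL of 1×PARP cocktail with biotinylated NAD and activated DNA was added for 1 hour.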

Chain of PARP-1 (poly[ADP-ribose] polymerase 1) enzyme (P09874 whole entry): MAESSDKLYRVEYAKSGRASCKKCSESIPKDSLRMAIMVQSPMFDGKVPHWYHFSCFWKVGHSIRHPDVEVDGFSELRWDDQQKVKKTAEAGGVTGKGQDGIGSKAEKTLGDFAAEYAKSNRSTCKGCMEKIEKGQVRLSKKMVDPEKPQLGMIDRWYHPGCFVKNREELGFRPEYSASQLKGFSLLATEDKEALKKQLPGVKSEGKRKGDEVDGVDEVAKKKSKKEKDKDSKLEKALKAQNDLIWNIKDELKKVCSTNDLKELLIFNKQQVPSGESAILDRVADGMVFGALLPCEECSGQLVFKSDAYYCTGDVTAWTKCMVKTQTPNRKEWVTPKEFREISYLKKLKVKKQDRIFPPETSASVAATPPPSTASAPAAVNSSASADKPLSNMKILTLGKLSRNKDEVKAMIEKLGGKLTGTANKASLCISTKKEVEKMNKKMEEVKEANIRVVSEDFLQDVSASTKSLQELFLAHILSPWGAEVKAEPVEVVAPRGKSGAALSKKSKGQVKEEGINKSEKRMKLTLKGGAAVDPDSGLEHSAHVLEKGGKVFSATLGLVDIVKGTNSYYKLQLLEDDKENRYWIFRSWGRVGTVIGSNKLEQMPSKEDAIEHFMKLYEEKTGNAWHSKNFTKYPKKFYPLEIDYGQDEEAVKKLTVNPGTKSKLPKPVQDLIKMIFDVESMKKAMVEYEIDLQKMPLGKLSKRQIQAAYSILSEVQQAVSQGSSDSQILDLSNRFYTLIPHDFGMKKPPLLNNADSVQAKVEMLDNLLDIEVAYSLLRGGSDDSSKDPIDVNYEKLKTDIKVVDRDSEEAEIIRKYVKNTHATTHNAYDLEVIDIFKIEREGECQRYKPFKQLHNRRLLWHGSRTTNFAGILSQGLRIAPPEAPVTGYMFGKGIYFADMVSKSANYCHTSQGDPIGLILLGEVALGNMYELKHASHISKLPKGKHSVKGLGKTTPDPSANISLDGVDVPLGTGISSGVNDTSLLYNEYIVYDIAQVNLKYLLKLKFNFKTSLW

| inhibition at 0.001 µM [%] | IC50 [nM] | SMILES |
| --- | --- | --- |
| 50 to 80 | – | Cc1cc(F)cc2c(=O)[nH]c(CCCN3CCN(c4ccc(C#N)cn4)CC3)cc12 [Example 36, 6-(4-(3-(7-fluoro-5-methyl-1-oxo-1,2-dihydroisoquinolin-3-yl)propyl)piperazin-1-yl)nicotinonitrile] |
| < 50 | – | N#Cc1ccc(NC2CCN(CCCc3cc4ccc(F)cc4c(=O)[nH]3)CC2)cc1 [Example 249, 4-((1-(3-(7-fluoro-1-oxo-1,2-dihydroisoquinolin-3-yl)propyl)piperidin-4-yl)amino)benzonitrile] |
| < 50 | – | N#Cc1ccc(N2CCN(CCCc3cc4cccc(F)c4c(=O)[nH]3)CC2)cn1 [Example 2, 5-(4-(3-(8-fluoro-1-oxo-1,2-dihydroisoquinolin-3-yl)propyl)piperazin-1-yl)picolinonitrile] |
| 50 to 80 | – | N#Cc1ccc(N2CCN(CCCc3cc4ccc(F)cc4c(=O)[nH]3)CC2)cn1 [Example 10, 5-(4-(3-(7-fluoro-1-oxo-1,2-dihydroisoquinolin-3-yl)propyl)piperazin-1-yl)picolinonitrile] |
| < 50 | – | O=c1[nH]c(CCCN2CCN(c3cccc(Cl)c3)CC2)cc2ccc(F)cc12 [Example 17, 3-(3-(4-(3-chlorophenyl)piperazin-1-yl)propyl)-7-fluoroisoquinolin-1(2H)-one] |
| < 50 | – | O=c1[nH]c(CCCN2CCN(c3ccc(C(F)(F)F)cc3)CC2)cc2ccc(F)cc12 [Example 9, 7-fluoro-3-(3-(4-(4-(trifluoromethyl)phenyl)piperazin-1-yl)propyl)isoquinolin-1(2H)-one] |
| < 50 | – | O=c1[nH]c(CCCN2CCN(c3ccc(F)cc3)CC2)cc2ncccc12 [Example 223, 7-(3-(4-(4-fluorophenyl)piperazin-1-yl)propyl)-1,6-naphthyridin-5(6H)-one] |
| < 50 | 4.05 | Cc1cc(F)cc2c(=O)[nH]c(CCC(=O)N3CCN(c4ccc(C#N)nc4)CC3)cc12 [Example 151, 5-(4-(3-(7-fluoro-5-methyl-1-oxo-1,2-dihydroisoquinolin-3-yl)propanoyl)piperazin-1-yl)picolinonitrile] |
| < 50 | – | O=c1[nH]c(CCCN2CCN(c3cccc(OC(F)(F)F)c3)CC2)cc2ccc(F)cc12 [Example 16, 7-fluoro-3-(3-(4-(3-(trifluoromethoxy)phenyl)piperazin-1-yl)propyl)isoquinolin-1(2H)-one] |
| < 50 | – | N#Cc1ccc(OC2CCN(CCCc3cc4cccc(F)c4c(=O)[nH]3)CC2)cc1 [Example 254, 4-((1-(3-(8-fluoro-1-oxo-1,2-dihydroisoquinolin-3-yl)propyl)piperidin-4-yl)oxy)benzonitrile] |
| < 50 | – | O=c1[nH]c(CCCN2CCN(c3cccc([N+](=O)[O-])c3)CC2)cc2ccc(F)cc12 [Example 11, 7-fluoro-3-(3-(4-(3-nitrophenyl)piperazin-1-yl)propyl)isoquinolin-1(2H)-one] |
| < 50 | – | Cc1ccc(F)c2c(=O)[nH]c(CCCN3CCN(C(=O)c4ccccc4)CC3)cc12 [Example 66, 3-(3-(4-benzoylpiperazin-1-yl)propyl)-8-fluoro-5-methylisoquinolin-1(2H)-one] |
| < 50 | – | N#Cc1cc(F)ccc1N1CCN(C(=O)CCc2cc3cccc(F)c3c(=O)[nH]2)CC1 [Example 76, 5-fluoro-2-(4-(3-(8-fluoro-1-oxo-1,2-dihydroisoquinolin-3-yl)propanoyl)piperazin-1-yl)benzonitrile] |
| 50 to 80 | 4.92 | N#Cc1ccc(N2CCN(C(=O)CCc3cc4ncccc4c(=O)[nH]3)CC2)cc1 [Example 241, 4-(4-(3-(5-oxo-5,6-dihydro-1,6-naphthyridin-7-yl)propanoyl)piperazin-1-yl)benzonitrile] |

The next lines start with the molecule.

| SMILES | inhibition at 0.001 µM [%] | IC50 [nM] |
| --- | --- | --- |
| O=C(CCc1cc2cccc(F)c2c(=O)[nH]1)N1CCN(C(=O)C2CCCO2)CC1 (centres unmarked) [Example 190, 8-fluoro-3-(3-oxo-3-(4-(tetrahydrofuran-2-carbonyl)piperazin-1-yl)propyl)isoquinolin-1(2H)-one] | < 50 | – |
| N#Cc1ccc(OC2CC3CCC(C2)N3CCCc2cc3cccc(F)c3c(=O)[nH]2)cc1 (centres unmarked) [Example 273, 4-((8-(3-(8-fluoro-1-oxo-1,2-dihydroisoquinolin-3-yl)propyl)-8-azabicyclo[3.2.1]octan-3-yl)oxy)benzonitrile] | < 50 | – |
| Cc1ccc(F)c2c(=O)[nH]c(CCC(=O)N3CC=C(c4ccc(C#N)nc4)CC3)cc12 [Example 145, 1′-(3-(8-fluoro-5-methyl-1-oxo-1,2-dihydroisoquinolin-3-yl)propanoyl)-1′,2′,3′,6′-tetrahydro-[3,4′-bipyridine]-6-carbonitrile] | < 50 | – |
| Cc1ccc(F)c2c(=O)[nH]c(CCC(=O)N3C4CCC3CN(c3ccc(F)nc3)C4)cc12 [Example 211, 8-fluoro-3-(3-(3-(6-fluoropyridin-3-yl)-3,8-diazabicyclo[3.2.1]octan-8-yl)-3-oxopropyl)-5-methylisoquinolin-1(2H)-one] | < 50 | – |
| Cc1ccc(F)c2c(=O)[nH]c(CCC(=O)N3C4CCC3CN(c3ccc(C#N)cn3)C4)cc12 [Example 207, 6-(8-(3-(8-fluoro-5-methyl-1-oxo-1,2-dihydroisoquinolin-3-yl)propanoyl)-3,8-diazabicyclo[3.2.1]octan-3-yl)nicotinonitrile] | < 50 | – |
| N#Cc1ccc(NC2CCN(C(=O)CCc3cc4cccc(F)c4c(=O)[nH]3)CC2)cn1 [Example 258, 5-((1-(3-(8-fluoro-1-oxo-1,2-dihydroisoquinolin-3-yl)propanoyl)piperidin-4-yl)amino)picolinonitrile] | < 50 | – |
| Cc1ccc(F)c2c(=O)[nH]c(CCC(=O)N3CC=C(c4ccc(F)c(C#N)c4)CC3)cc12 [Example 139, 2-fluoro-5-(1-(3-(8-fluoro-5-methyl-1-oxo-1,2-dihydroisoquinolin-3-yl)propanoyl)-1,2,3,6-tetrahydropyridin-4-yl)benzonitrile] | < 50 | – |
| Cc1cc(F)cc2c(=O)[nH]c(CCC(=O)N3C4CCC3CN(c3ccc(F)cc3)C4)cc12 [Example 215, 7-fluoro-3-(3-(3-(4-fluorophenyl)-3,8-diazabicyclo[3.2.1]octan-8-yl)-3-oxopropyl)-5-methylisoquinolin-1(2H)-one] | < 50 | – |
| O=c1[nH]c(CCCN2CC=C(c3ccc(F)nc3)CC2)cc2cccc(F)c12 [Example 43] | < 50 | – |
| O=C(CCc1cc2ccc(F)cc2c(=O)[nH]1)N1CC=C(c2cccc(F)c2)CC1 [Example 115, 7-fluoro-3-(3-(4-(3-fluorophenyl)-3,6-dihydropyridin-1(2H)-yl)-3-oxopropyl)isoquinolin-1(2H)-one] | < 50 | – |
| Cc1ccc(F)c2c(=O)[nH]c(CCC(=O)N3CCC(NC(=O)C4CC4)CC3)cc12 [Example 276, N-(1-(3-(8-fluoro-5-methyl-1-oxo-1,2-dihydroisoquinolin-3-yl)propanoyl)piperidin-4-yl)cyclopropanecarboxamide] | < 50 | – |
| Cc1cc(F)cc2c(=O)[nH]c(CCC(=O)N3CCN(C(=O)C4CCCO4)CC3)cc12 (centres unmarked) [Example 193, 7-fluoro-5-methyl-3-(3-oxo-3-(4-(tetrahydrofuran-2-carbonyl)piperazin-1-yl)propyl)isoquinolin-1(2H)-one] | < 50 | – |
| Cc1ccc(F)c2c(=O)[nH]c(CCC(=O)N3CCN(C(=O)C(C)C)CC3)cc12 [Example 187, 8-fluoro-3-(3-(4-isobutyrylpiperazin-1-yl)-3-oxopropyl)-5-methylisoquinolin-1(2H)-one] | < 50 | – |
| Cc1ccc(F)c2c(=O)[nH]c(CCC(=O)N3CCC(Oc4ccc(C#N)cc4)CC3)cc12 [Example 261, 4-((1-(3-(8-fluoro-5-methyl-1-oxo-1,2-dihydroisoquinolin-3-yl)propanoyl)piperidin-4-yl)oxy)benzonitrile] | < 50 | – |
| Cc1ccc(F)c2c(=O)[nH]c(CCC(=O)N3CCN(C(=O)C4CCCCC4)CC3)cc12 [Example 171, 3-(3-(4-(cyclohexanecarbonyl)piperazin-1-yl)-3-oxopropyl)-8-fluoro-5-methylisoquinolin-1(2H)-one] | < 50 | – |
| Cc1ccc(F)c2c(=O)[nH]c(CCCN3C4CCC3CN(c3ccc(C#N)cn3)C4)cc12 [Example 199] | < 50 | – |
| Cc1cc(F)cc2c(=O)[nH]c(CCCN3CC=C(c4ccc(F)nc4)CC3)cc12 [Example 63, 7-fluoro-3-(3-(6-fluoro-3′,6′-dihydro-[3,4′-bipyridine]-1′(2′H)-yl)propyl)-5-methylisoquinolin-1(2H)-one] | < 50 | – |
| N#Cc1cc(F)cc(C2=CCN(C(=O)CCc3cc4cccc(F)c4c(=O)[nH]3)CC2)c1 [Example 84, 3-fluoro-5-(1-(3-(8-fluoro-1-oxo-1,2-dihydroisoquinolin-3-yl)propanoyl)-1,2,3,6-tetrahydropyridin-4-yl)benzonitrile] | < 50 | – |
| Cc1ccc(F)c2c(=O)[nH]c(CCCN3CC=C(c4ccc(C#N)c(F)c4)CC3)cc12 [Example 55, 2-fluoro-4-(1-(3-(8-fluoro-5-methyl-1-oxo-1,2-dihydroisoquinolin-3-yl)propyl)-1,2,3,6-tetrahydropyridin-4-yl)benzonitrile] | 50 to 80 | 1.77 |
| N#Cc1cc(C2=CCN(C(=O)CCc3cc4cccc(F)c4c(=O)[nH]3)CC2)ccc1F [Example 87, 2-fluoro-5-(1-(3-(8-fluoro-1-oxo-1,2-dihydroisoquinolin-3-yl)propanoyl)-1,2,3,6-tetrahydropyridin-4-yl)benzonitrile] | < 50 | – |
| Cc1ccc(F)c2c(=O)[nH]c(CCC(=O)N3CC=C(c4ccc(F)cn4)CC3)cc12 [Example 130, 8-fluoro-3-(3-(5-fluoro-3′,6′-dihydro-[2,4′-bipyridine]-1′(2′H)-yl)-3-oxopropyl)-5-methylisoquinolin-1(2H)-one] | < 50 | – |
